These results are taken from ChEMBL document CHEMBL1949499, “Nicotinic acids: liver-targeted SCD inhibitors with preclinical anti-diabetic efficacy” (Bioorg Med Chem Lett, 2011).

Usually IC50 stands for the concentration needed to halve the response being measured.

Data set [1] addresses T1, Acyl-CoA desaturase 1 (Rattus norvegicus, UniProt P07308).
T1 sequence (P07308 whole entry): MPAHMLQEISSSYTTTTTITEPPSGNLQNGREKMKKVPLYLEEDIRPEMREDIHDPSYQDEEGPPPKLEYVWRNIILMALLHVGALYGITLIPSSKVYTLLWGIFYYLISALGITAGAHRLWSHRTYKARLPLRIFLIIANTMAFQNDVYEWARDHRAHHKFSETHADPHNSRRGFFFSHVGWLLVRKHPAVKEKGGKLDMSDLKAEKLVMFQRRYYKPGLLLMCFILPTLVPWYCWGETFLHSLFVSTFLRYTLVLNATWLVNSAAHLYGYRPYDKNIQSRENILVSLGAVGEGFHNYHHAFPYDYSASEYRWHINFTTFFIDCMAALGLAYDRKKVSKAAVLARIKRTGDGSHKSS
The data set can be described thus: Inhibition of rat SCD1.

The target of data set [2] is T2, Stearoyl-CoA desaturase (Homo sapiens, UniProt O00767).
T2 sequence (O00767 whole entry): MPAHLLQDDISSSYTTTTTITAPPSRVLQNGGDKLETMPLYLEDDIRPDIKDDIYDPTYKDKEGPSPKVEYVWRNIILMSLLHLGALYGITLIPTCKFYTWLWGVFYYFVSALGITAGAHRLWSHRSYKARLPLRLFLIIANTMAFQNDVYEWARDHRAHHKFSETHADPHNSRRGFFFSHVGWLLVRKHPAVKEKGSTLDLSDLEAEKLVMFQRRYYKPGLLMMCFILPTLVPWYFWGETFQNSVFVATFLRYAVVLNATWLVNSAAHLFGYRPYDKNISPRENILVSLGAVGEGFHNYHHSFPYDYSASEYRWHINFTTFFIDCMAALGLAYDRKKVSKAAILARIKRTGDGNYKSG
The data set can be described thus: Inhibition of human SCD1 expressed in human HepG2 cells assessed as conversion of [14C]stearic acid to [14C]oleic acid. The format is cell-based.

Data set [3] addresses T1, Acyl-CoA desaturase 1. Put plainly: Inhibition of SCD1 in Sprague-Dawley rat hepatocytes assessed as conversion of [14C]oleic acid formation by HPLC analysis. Type of data set: cell-based, Hepatocyte.
Data set [4] relates to HepG2. Put plainly: Selectivity ratio of IC50 for human SCD1 expressed in human HepG2 cells to IC50 for rat SCD1 in Sprague-Dawley rat hepatocytes. The format is cell-based.
Data set [5] can be described thus: Ratio of drug uptake in left median liver lobe to harderian gland in C57/BL6 mouse at 10 mg/kg, po after 6 hrs. Also noted: dose 10 mg/kg, route oral. Type of data set: ADME, organism-based. Conditions: in vivo.
Data set [6] relates to Mus musculus. Put plainly: Inhibition of SCD activity in high sucrose/fat free diet fed C57/BL6 mouse liver assessed as reduction in conversion of [14C]stearic acid to [14C]oleic acid at 100 mg/kg, po. Type of data set: functional.
The nature of data set [7]: Plasma concentration in high sucrose/fat free diet fed C57/BL6 mouse at 100 mg/kg, po after 3 hrs. Type of data set: ADME, organism-based. Also noted: dose 100 mg/kg, route oral.
Data set [8] in a line: Drug uptake in high sucrose/fat free diet fed C57/BL6 mouse liver at 100 mg/kg, po after 3 hrs. To be noted: read-out: Drug uptake. On the set-up: dose 100 mg/kg, route oral. Type of data set: ADME, organism-based.
The subject of data set [9] is Mus musculus. Put plainly: Acute antidiabetic activity in high fat diet fed C57/BL6 mouse eDIO model assessed as increase in glucose clearance at 100 mg/kg, po administered 1 hr prior to glucose challenge by oGTT assay. The format is functional.
Data set [10] is described as follows: Drug uptake in high fat diet fed C57/BL6 mouse eDIO model whole blood at 100 mg/kg, po after 3 hrs. The format is ADME, organism-based. On the set-up: dose 100 mg/kg, route oral. To be noted: read-out: Drug uptake.
Data set [11] relates to Nucleic Acid. Put plainly: Ratio of drug uptake in high fat diet fed C57/BL6 mouse eDIO model whole blood to high sucrose/fat free diet fed C57/BL6 mouse plasma. Type of data set: ADME. Conditions: in vivo.

Calls of active or inactive are those of the source. The calls are words filed in the database; no cut-off is given here.

`O=C(O)c1cncc(-c2ccc(N3CCC(Oc4cc(F)ccc4Br)CC3)cn2)c1`: the IC50 in [1] turned out to be 1220 nM.

As to `O=C(O)Cc1cncc(-c2ccc(N3CCC(Oc4cc(F)ccc4Br)CC3)nn2)c1`, the half-maximal inhibitory concentration (IC50) came to 20 nM in data set [1], 780 nM in data set [2] and 75 nM in [3]. Also, the Ratio IC50 in data set [4] amounted to 10. Besides, the Ratio in data set [5] is 4.

`O=C(O)c1cncc(-c2cnc(N3CCC(Oc4cc(F)ccc4Br)CC3)nn2)c1`: the IC50 in data set [1] turned out to be 20 nM; in [2] it was 4470 nM; in data set [3] it was 268 nM. Further, the Ratio in data set [5] came to 1.5.

Turning to `O=C(O)c1ccc(-c2ccc(N3CCC(Oc4cc(F)ccc4Br)CC3)nn2)nc1`, the IC50 was 8 nM in data set [1], 128 nM in data set [2] and 159 nM in [3].

Regarding `O=C(O)c1cncc(-c2ccc(N3CCC(Oc4c(F)cc(F)cc4Br)CC3)nn2)c1`, the concentration for half-maximal inhibition (IC50) in data set [1] is over 20000 nM. Further, in data set [6], the inhibition entry is “inactive”. Besides, the concentration at 3 h amounted to 750 nM in data set [7], 30200 nM in [8] and 730 nM in data set [10]. In addition, the result in data set [9] was inactive. Further, the Ratio in data set [11] was under 2.

`O=C(O)c1cncc(-c2ccc(N3CCC(Oc4cc(F)c(F)cc4Br)CC3)nn2)c1`: the half-maximal inhibitory concentration (IC50) was determined as 15 nM in data set [1], 8260 nM in data set [2] and 563 nM in data set [3].

With `O=C(O)c1cncc(-c2ccc(N3CCC(Oc4ccccc4Cl)CC3)nn2)c1`, the figures for the IC50 in data set [1], in data set [2] and in data set [3] were 166 nM, over 10000 nM and 1890 nM, respectively.

Regarding `O=C(O)c1cncc(-c2cnc(N3CCC(Oc4cc(F)ccc4Br)CC3)cn2)c1`, the IC50 in data set [1] came out at 69 nM; in data set [2] it was 6720 nM; in [3] it was 1360 nM. The Ratio in data set [5] is recorded as 12.

With `O=C(O)c1cccc(-c2ccc(N3CCC(Oc4ccccc4C(F)(F)F)CC3)nn2)c1`, the IC50 came to 107 nM in data set [1] and 1110 nM in data set [2].

In the case of `O=C(O)Cc1ccc(N2CCC(Oc3ccccc3C(F)(F)F)CC2)nn1`, the midpoint of inhibition in data set [1], the IC50, lay at 2680 nM.

`O=C(O)c1cncc(-c2ccc(N3CCC(Oc4cc(F)ccc4Br)CC3)nc2)c1`: the IC50 came to 24 nM in [1], 2410 nM in data set [2] and 1930 nM in [3]. For the same molecule, the Ratio in data set [5] came to 3.

As to `O=C(O)c1ccc(N2CCC(Oc3ccccc3C(F)(F)F)CC2)nn1`, the IC50 in data set [1] was over 10000 nM.

For `O=C(O)c1cncc(-c2ccc(N3CCC(Oc4ccccc4Br)CC3)nn2)c1`, the half-maximal inhibitory concentration (IC50) in [1] worked out at 47 nM; in data set [2], 18300 nM; in data set [3], 1640 nM. For the same molecule, the Ratio IC50 in data set [4] stood at 11.

Consider `O=C(O)c1ccc(-c2ccc(N3CCC(Oc4ccccc4C(F)(F)F)CC3)nn2)cc1`, for which the IC50 in [1] was 105 nM; in data set [2], 550 nM.

For the molecule `FC(F)(F)c1ccccc1OC1CCN(c2ccc(-c3cncc(-c4nnn[nH]4)c3)nn2)CC1`, in [1], inhibition was half-maximal at 11000 nM (IC50).

Turning to `O=C(O)c1cncc(-c2ccc(N3CCC(Oc4ccccc4C(F)(F)F)CC3)cc2)c1`, in data set [1], the IC50 was 8440 nM.

In data set [1], `O=C(O)c1cncc(-c2ccc(N3CCC(Oc4cc(F)ccc4Br)CC3)nn2)n1` registered a half-inhibitory concentration (IC50) of 772 nM.

Take `O=C(O)c1cncc(-c2ccc(N3CCC(Oc4ccccc4I)CC3)nn2)c1`: the IC50 in data set [1] is 27 nM; in data set [2], 5080 nM; in data set [3] it was 1000 nM. In addition, the Ratio IC50 in [4] amounted to 5.

For the molecule `O=C(O)c1cncc(-c2cnc(N3CCC(Oc4cc(F)ccc4Br)CC3)nc2)c1`, the results for the half-inhibitory concentration (IC50) in [1], in [2] and in [3] were 77 nM, 9420 nM and 3050 nM, respectively. Further, the Ratio in data set [5] stood at 8.

For the molecule `O=C(O)c1cncc(-c2ccc(N3CCC(Oc4ccccc4C(F)(F)F)CC3)nn2)c1`, the IC50 in [1] was 129 nM; in [2], over 20000 nM; in data set [3], 1300 nM.
